Measured values as given in patent US20240197761A1, “FUCOSYLATION AND IMMUNE MODULATION IN CANCER” (H. LEE MOFFITT CANCER CENTER AND RESEARCH INSTITUTE, INC., priority 2021, published 2024).

System: human PBMC-derived, CD3/CD28-activated CD4+T cells
Assay: Phosphoproteomic and fuco-proteomic mass spectrometric profiling of CD4+T cells
Type: cell-based
Conditions: 250 μM L-fucose, 48 h
Text: FIGS. 14A-14E show Fucosylation of CD4^+T cells affects PKA activity and actin polymerization; and the identification of Integrin P5 as a highly fucosylated protein in activated CD4+ T cells. (a) Top 5 pathways in human CD4^+T cells that are affected by increased fucosylation identified by Ingenuity Pathway Analysis (Qiagen; pathways were identified from phosphoproteomic analyses of CD3/CD28-activated human PBMC-derived CD4^+T cells treated L-fucose (LF) isolated from 3 independent healthy human donors (D1, D2, D3)). (b) (left) Immunoblot of PKA phosphorylated substrates (top) and Ponceau staining (bottom) of human PBMC-derived, CD3/CD28-activated CD4^+T cells that were treated ±250 μM LF±10 μM forskolin (Fkn, a PKA agonist). (right) Densitometric quantification of selected bands (red dashed boxes) normalized to Ponceau staining. (c) Immunoblot of β-actin (top) and Ponceau staining (middle) of human PBMC-derived, CD3/CD28 activated CD4^+T cells were treated ±250 μM LF±25 mM DTSP crosslinker (x-link). (bottom) Densitometric quantification of high molecular weight β-actin oligomers (red dashed boxes) normalized to Ponceau intensity and then normalized to −LF, -x-link samples. (d) Top 5 AAL-bound (fucosylated) proteins in human PBMC-derived, CD3/CD28-activated CD4^+T cells from (a) that were identified by Ingenuity Pathway Analysis (Qiagen). […]

Q: Which “Protein Kinase A (PKA) and actin signaling” value does the source give for `C[C@H](O)[C@@H](O)[C@@H](O)[C@H](O)C=O` [L-fucose] here?
A: significantly altering
